# Results reported in publication PMC12406203 (Journal of Medicinal Chemistry, 2025).
# How the values were obtained:
# [1] = tested on: ABL1(T315I)-phosphorylated
# [2] = tested on: JAK3(JH1domain-catalytic)
# HepG2 cells = assay: MTS metabolic activity (cytotoxicity); format: cell-based, human; conditions: HepG2, MTS assay, 24 h, concentrations of 5 μM or less
# Experimental: (§1) The human hepatocellular carcinoma HepG2 and human neuroblastoma SH-SY5Y cell lines were purchased from American Type Culture Collection (Manassas, VA, USA). The murine microglia BV2 cells were a generous gift from Dr. Biljana Božić Nedeljković (University of Belgrade, Belgrade, Serbia). Cells were cultured in Advanced Dulbecco’s modified Eagle’s medium (Gibco, Thermo Fisher Scientific, Waltham, MA, USA) supplemented with 10% fetal bovine serum (FBS, Gibco), 2 mM L-glutamine, 50 U/mL penicillin and 50 μg/mL streptomycin (Sigma, St. Louis, MO, USA) in a humidified atmosphere of 95% air and 5% CO2 at 37 °C, and grown to 80% confluence. Prior to cell treatment, complete medium was replaced with serum-free medium. Compounds 94 and 95 were prepared as a stock solution of 30 mM in DMSO and were used at concentrations of 1–100 μM.
# (§2) BV2 cells (5 × 10^3/well) and HepG2 and SH-SY5Y cells (1 × 10^4/well) were seeded in 96-well plates and assessed by MTS ([3-(4,5-dimethylthiazol-2-yl)-5-(3-carboxymethoxyphenyl)-2-(4-sulfophenyl)-2H tetrazolium, inner salt) assay for their response to compounds 94 and 95. Cells were treated with increasing concentrations of compounds (1–100 μM) in serum-free medium, and metabolic activity was assessed after 24 h using the CellTiter 96 Aqueous One Solution Cell Proliferation Assay (Promega, Madison, WI, USA), in accordance with the manufacturer’s instructions. Absorbance was measured with an automatic microplate reader (Tecan Safire^2, Switzerland) at a wavelength of 492 nm. Results are presented as a percentage of the control (DMSO).
# SH-SY5Y cells = assay: MTS metabolic activity (cytotoxicity); format: cell-based, human; conditions: MTS assay, 24 h, concentrations of 5 μM or less
# Experimental: as §1, §2
# [3] = target: T1, JAK3(JH1domain-catalytic) (Homo sapiens, UniProt P52333); assay: KINOMEscan; format: binding
# T1 construct: JAK3(JH1domain-; purchased Eurofins DiscoverX, LLC; host or cells: E. coli (T7 phage) or HEK-293
# T1 sequence (P52333 822-1111 limits assumed): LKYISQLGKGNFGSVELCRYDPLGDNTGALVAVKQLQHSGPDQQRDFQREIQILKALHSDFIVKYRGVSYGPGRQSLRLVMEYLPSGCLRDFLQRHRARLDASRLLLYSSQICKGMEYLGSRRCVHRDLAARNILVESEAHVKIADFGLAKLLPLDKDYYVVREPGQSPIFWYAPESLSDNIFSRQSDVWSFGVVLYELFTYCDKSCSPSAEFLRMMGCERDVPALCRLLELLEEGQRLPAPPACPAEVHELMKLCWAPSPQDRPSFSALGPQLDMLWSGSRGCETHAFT
# PIK3C2B = target: T2, PIK3C2B (Homo sapiens, UniProt O00750); assay: KINOMEscan; format: binding
# T2 construct: purchased Eurofins DiscoverX, LLC; host or cells: E. coli BL21-derived host (T7 phage) or HEK-293
# T2 sequence (O00750 whole entry): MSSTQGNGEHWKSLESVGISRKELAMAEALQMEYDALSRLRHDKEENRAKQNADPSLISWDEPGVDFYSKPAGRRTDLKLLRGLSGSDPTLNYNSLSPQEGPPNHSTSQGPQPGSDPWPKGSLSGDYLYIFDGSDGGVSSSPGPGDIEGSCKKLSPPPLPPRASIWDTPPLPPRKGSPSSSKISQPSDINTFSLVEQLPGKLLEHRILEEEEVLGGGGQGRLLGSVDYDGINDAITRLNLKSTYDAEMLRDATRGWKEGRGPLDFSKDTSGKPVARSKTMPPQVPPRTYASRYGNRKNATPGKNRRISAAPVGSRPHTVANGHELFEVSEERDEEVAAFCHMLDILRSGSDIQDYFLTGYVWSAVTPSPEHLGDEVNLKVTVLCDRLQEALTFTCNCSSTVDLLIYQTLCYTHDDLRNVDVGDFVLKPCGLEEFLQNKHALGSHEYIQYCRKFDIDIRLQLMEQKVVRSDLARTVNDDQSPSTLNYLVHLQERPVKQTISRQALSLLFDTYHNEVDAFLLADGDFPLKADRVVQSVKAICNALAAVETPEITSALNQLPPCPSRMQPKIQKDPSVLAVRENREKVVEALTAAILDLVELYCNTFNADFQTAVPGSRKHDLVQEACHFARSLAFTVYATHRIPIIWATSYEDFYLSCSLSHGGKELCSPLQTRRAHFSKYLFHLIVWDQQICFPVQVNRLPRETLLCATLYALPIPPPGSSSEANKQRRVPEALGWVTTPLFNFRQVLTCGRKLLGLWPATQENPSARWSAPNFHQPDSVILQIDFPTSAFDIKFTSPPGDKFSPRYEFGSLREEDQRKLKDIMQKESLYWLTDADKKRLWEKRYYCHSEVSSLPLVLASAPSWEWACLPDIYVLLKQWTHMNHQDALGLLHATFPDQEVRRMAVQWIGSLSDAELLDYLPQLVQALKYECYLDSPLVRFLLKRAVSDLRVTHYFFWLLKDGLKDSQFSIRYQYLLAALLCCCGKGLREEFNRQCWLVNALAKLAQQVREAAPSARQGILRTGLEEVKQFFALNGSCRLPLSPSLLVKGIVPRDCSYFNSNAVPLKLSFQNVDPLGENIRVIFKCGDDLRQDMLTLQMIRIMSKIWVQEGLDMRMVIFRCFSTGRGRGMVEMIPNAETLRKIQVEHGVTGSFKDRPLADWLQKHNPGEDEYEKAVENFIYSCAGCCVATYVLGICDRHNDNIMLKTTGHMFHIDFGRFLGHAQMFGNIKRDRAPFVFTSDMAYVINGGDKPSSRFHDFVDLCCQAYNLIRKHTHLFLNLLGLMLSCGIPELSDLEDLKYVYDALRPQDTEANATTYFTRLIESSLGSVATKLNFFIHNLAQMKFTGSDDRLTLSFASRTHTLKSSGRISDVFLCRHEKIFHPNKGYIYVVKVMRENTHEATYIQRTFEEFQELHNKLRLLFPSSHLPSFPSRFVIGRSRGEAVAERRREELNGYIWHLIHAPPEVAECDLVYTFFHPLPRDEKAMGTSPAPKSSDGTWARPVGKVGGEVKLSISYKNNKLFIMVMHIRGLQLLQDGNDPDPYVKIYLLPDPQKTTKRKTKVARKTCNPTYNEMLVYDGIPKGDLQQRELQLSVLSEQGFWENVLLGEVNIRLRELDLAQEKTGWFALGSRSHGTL
# [4] = tested on: mice (motor coordination); assay: Rotarod test; conditions: 10 mg/kg i.p., mice
# Experimental: For behavioral tests, the mice were selected randomly; each group consisted of 7–10 mice.
# In the rotarod, locomotor activity, and MWM tests, only one dose effective in the scopolamine model of amnesia was evaluated.
# Three days before the rotarod test, the mice were trained on the rotarod apparatus (Rotarod apparatus, May Commat RR0711, Turkey; rod diameter: 2 cm) that was rotated at a fixed speed of 18 rpm. In each training session, the mice were placed on the rotating rod for 3 min with an unlimited number of trials. The proper experiment was performed 24 h after the last training trial. […] Motor impairments in mice were defined as the inability to remain on the rotarod apparatus for 1 min. The results are expressed as the mean time spent on the rotarod.
structure (smiles),measurement,setting,value
"CC(C)Cn1ncc2cc(Cc3ccc(F)cc3F)c(C(=O)NCCN(C)C)cc21 [Compound 94, 5-(2,4-Difluorobenzyl)-N-(2-(dimethylamino)ethyl)-1-isobutyl-1H-indazole-6-carboxamide]",RA @ 1000nM,[1],93%
same,RA @ 10000nM,[1],90%
same,RA @ 1000nM,AURKA,96%
same,RA @ 10000nM,AURKA,93%
same,RA @ 1000nM,BTK,100%
same,RA @ 10000nM,BTK,100%
same,RA @ 1000nM,CDK11,100%
same,RA @ 10000nM,CDK11,89%
same,RA @ 1000nM,CDK9,100%
same,RA @ 10000nM,CDK9,100%
same,RA @ 1000nM,CSNK1G2,96%
same,RA @ 10000nM,CSNK1G2,93%
same,RA @ 1000nM,EGFR,98%
same,RA @ 10000nM,EGFR,69%
same,RA @ 1000nM,ERK1,87%
same,RA @ 10000nM,ERK1,87%
same,RA @ 1000nM,FAK,96%
same,RA @ 10000nM,FAK,89%
same,RA @ 1000nM,FGFR2,95%
same,RA @ 10000nM,FGFR2,100%
same,RA @ 1000nM,INSR,81%
same,RA @ 10000nM,INSR,90%
same,RA @ 1000nM,[2],100%
same,RA @ 10000nM,[2],100%
same,RA @ 1000nM,KIT,100%
same,RA @ 10000nM,KIT,100%
same,RA @ 1000nM,"KIT(V559D,T670I)",100%
same,RA @ 10000nM,"KIT(V559D,T670I)",100%
same,RA @ 1000nM,LKB1,100%
same,RA @ 10000nM,LKB1,96%
same,RA @ 1000nM,MAPKAPK5,100%
same,RA @ 10000nM,MAPKAPK5,100%
same,RA @ 1000nM,MKNK1,100%
same,RA @ 10000nM,MKNK1,100%
same,RA @ 1000nM,p38α,2.3%
same,RA @ 10000nM,p38α,0.4%
same,RA @ 1000nM,p38γ,93%
same,RA @ 10000nM,p38γ,94%
same,RA @ 1000nM,PIK3CG,86%
same,RA @ 10000nM,PIK3CG,85%
same,RA @ 1000nM,PLK3,100%
same,RA @ 10000nM,PLK3,97%
same,RA @ 1000nM,RET,100%
same,RA @ 10000nM,RET,100%
same,RA @ 1000nM,SRC,100%
same,RA @ 10000nM,SRC,94%
same,RA @ 1000nM,ZAP70,100%
same,RA @ 10000nM,ZAP70,79%
same,cell viability,HepG2 cells,did not affect cell viability
same,cell viability,SH-SY5Y cells,did not affect cell viability
same,RA @ 1000nM,[3],100%
same,RA @ 10000nM,[3],100%
same,RA @ 1000nM,PIK3C2B,90%
same,RA @ 10000nM,PIK3C2B,82%
same,motor adverse effects (rotarod test),[4],no motor adverse effects
"CN(C)CCNC(=O)c1cc2c(cnn2CC2CCCCC2)cc1Cc1ccc(F)cc1F [Compound 95, 1-(Cyclohexylmethyl)-5-(2,4-difluorobenzyl)-N-(2-(dimethylamino)ethyl)-1H-indazole-6-carboxamide]",RA @ 1000nM,[1],72%
same,RA @ 10000nM,[1],91%
same,RA @ 1000nM,AURKA,95%
same,RA @ 10000nM,AURKA,93%
same,RA @ 1000nM,BTK,100%
same,RA @ 10000nM,BTK,100%
same,RA @ 1000nM,CDK11,92%
same,RA @ 10000nM,CDK11,100%
same,RA @ 1000nM,CDK9,100%
same,RA @ 10000nM,CDK9,93%
same,RA @ 1000nM,CSNK1G2,100%
same,RA @ 10000nM,CSNK1G2,98%
same,RA @ 1000nM,EGFR,100%
same,RA @ 10000nM,EGFR,100%
same,RA @ 1000nM,ERK1,96%
same,RA @ 10000nM,ERK1,90%
same,RA @ 1000nM,FAK,92%
same,RA @ 10000nM,FAK,94%
same,RA @ 1000nM,FGFR2,100%
same,RA @ 10000nM,FGFR2,100%
same,RA @ 1000nM,INSR,84%
same,RA @ 10000nM,INSR,81%
same,RA @ 1000nM,[2],100%
same,RA @ 10000nM,[2],100%
same,RA @ 1000nM,KIT,100%
same,RA @ 10000nM,KIT,100%
same,RA @ 1000nM,"KIT(V559D,T670I)",47%
same,RA @ 10000nM,"KIT(V559D,T670I)",94%
same,RA @ 1000nM,LKB1,100%
same,RA @ 10000nM,LKB1,86%
same,RA @ 1000nM,MAPKAPK5,100%
same,RA @ 10000nM,MAPKAPK5,100%
same,RA @ 1000nM,MKNK1,100%
same,RA @ 10000nM,MKNK1,100%
same,RA @ 1000nM,p38α,6.7%
same,RA @ 10000nM,p38α,0.1%
same,RA @ 1000nM,p38γ,100%
same,RA @ 10000nM,p38γ,99%
same,RA @ 1000nM,PIK3CG,92%
same,RA @ 10000nM,PIK3CG,97%
same,RA @ 1000nM,PLK3,88%
same,RA @ 10000nM,PLK3,100%
same,RA @ 1000nM,RET,100%
same,RA @ 10000nM,RET,100%
same,RA @ 1000nM,SRC,100%
same,RA @ 10000nM,SRC,93%
same,RA @ 1000nM,ZAP70,100%
same,RA @ 10000nM,ZAP70,100%
same,cell viability,HepG2 cells,did not affect cell viability
same,cell viability,SH-SY5Y cells,did not affect cell viability
same,RA @ 1000nM,[3],100%
same,RA @ 10000nM,[3],100%
same,RA @ 1000nM,PIK3C2B,91%
same,RA @ 10000nM,PIK3C2B,91%
same,motor adverse effects (rotarod test),[4],no motor adverse effects
